Measurements: paper PMC11184554, “Nature-Inspired Gallinamides Are Potent Antischistosomal Agents: Inhibition of the Cathepsin B1 Protease Target and Binding Mode Analysis” (ACS Infectious Diseases, 2024)
Values joined by “and” are separate entries in the source; they are usually repeats but may differ in a detail not shown here. Identical values can stand only once.

How the values were obtained:
Format in all cases: biochemical
cathepsin B = assay: Protease activity in S. mansoni adult extract, cathepsin B substrates (continuous fluorometric assay); conditions: 1 μM gallinamide A, relative to uninhibited control, mean ± SD
Source text: (§1) We investigated whether gallinamide A inhibits the activity of the major proteases associated with proteolytic digestion in the adult schistosome gut. The digestive protease network includes the cysteine proteases cathepsins B, C, L from clan CA and legumain from clan CD, and an aspartic protease cathepsin D from clan AA.[11],[12] Their respective activities can be measured in protein extracts of S. mansoni using a kinetic assay with specific fluorogenic substrates. In addition, these activities can be attributed to particular proteases based on sensitivity to selective inhibitors[30]−[32] (Table 1). Accordingly, we exposed worm extracts to gallinamide A and analyzed the individual protease activities. Gallinamide A inhibited both the carboxydipeptidase (98%) and endopeptidase activities (94%) of cathepsin B as measured with the respective substrates, Abz–Phe–Arg–Val–Nph[15] and Cbz–Arg–Arg–AMC[33],[34] (Table 1). The activity measured with the Cbz–Phe–Arg–AMC substrate,[11],[13],[16],[33],[35] which can be cleaved by both cathepsins B and L, was inhibited by gallinamide A to a lesser extent (72%). […]
(§2) Proteolytic activities in S. mansoni adult extracts were measured in a continuous kinetic assay using the following peptidyl fluorogenic substrates (Bachem) or internally quenched FRET substrates (IOCB): 50 μM Cbz–Phe–Arg–AMC for cathepsins B and L,[13],[15] […]

cathepsins B and L = assay: Protease activity in S. mansoni adult extract, Cbz–Phe–Arg–AMC; conditions: 1 μM gallinamide A, endopeptidase, substrate Cbz–Phe–Arg–AMC, mean ± SD
Source text: as §1, §2

cathepsin C = biological target: T1, cathepsin C (Schistosoma mansoni, UniProt Q26563); assay: Protease activity in S. mansoni adult extract, Gly–Arg–AMC; conditions: 1 μM gallinamide A, exopeptidase (aminodipeptidase), substrate Gly–Arg–AMC, mean ± SD
T1 construct: from tissue; host or cells: soluble protein extract of mixed sex S. mansoni adults
T1 sequence (Q26563 218-454): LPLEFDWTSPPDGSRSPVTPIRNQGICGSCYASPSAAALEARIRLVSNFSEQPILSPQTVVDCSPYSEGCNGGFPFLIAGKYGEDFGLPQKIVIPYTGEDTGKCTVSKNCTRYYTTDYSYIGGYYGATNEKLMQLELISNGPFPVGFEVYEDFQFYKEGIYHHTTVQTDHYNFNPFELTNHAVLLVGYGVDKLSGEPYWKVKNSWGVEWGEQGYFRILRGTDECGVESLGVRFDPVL
Source text: as §1, §2

legumain = assay: Protease activity in S. mansoni adult extract, Cbz–Ala–Ala–Asn–AMC; conditions: 1 μM gallinamide A, substrate Cbz–Ala–Ala–Asn–AMC, in the presence of E-64, mean ± SD
Source text: as §1, §2

cathepsin D = assay: Protease activity in S. mansoni adult extract, FRET substrate; conditions: 1 μM gallinamide A, substrate Abz–Lys–Pro–Ala–Glu–Phe–Nph–Ala–Leu, in the presence of E-64, mean ± SD
Source text: as §1, §2

CC[C@H](C)[C@@H](C(=O)O[C@@H](CC(C)C)C(=O)N[C@@H](CC(C)C)C(=O)N[C@@H](C)/C=C/C(=O)N1C(=O)C=C(OC)[C@@H]1C)N(C)C [gallinamide A]
inhibition (%) (cathepsin B; endopeptidase activity, substrate Cbz–Arg–Arg–AMC): 94% and 93.7 ± 0.3% | inhibition (%) (cathepsin B; exopeptidase (carboxydipeptidase) activity, substrate Abz–Phe–Arg–Val–Nph): 98.0 ± 2.2% | inhibition (%) (cathepsins B and L): 72% | inhibition (%) (cathepsins B and L; listed as Gallinamide A): 71.9 ± 2.0% | inhibition (%) (cathepsin C): < 10% | inhibition (%) (cathepsin C; listed as Gallinamide A): 2.8 ± 1.9% | inhibition (%) (legumain): < 10% | inhibition (%) (legumain; listed as Gallinamide A): 8.2 ± 0.1% | inhibition (%) (cathepsin D): < 10% | inhibition (%) (cathepsin D; listed as Gallinamide A): 0.01 ± 1.54%
